Literature values, collected in patent US20130190388A1, “Methods and Compositions Related to DLK-1 and the P38 MAPK Pathway in Nerve Regeneration” (University of Utah Research Foundation, priority 2008, published 2013).

Experiments:
[1] = system: Magellan (Phr-1) growth cone phenotype; settings: Phr-1 (Magellan) mutant neurons
adult DRG neurons = settings: inhibiting p38 signaling; reduced from about 65% without inhibitor

SMILES	growth cone phenotype (expanded region of disorganized microtubules) [1]	regeneration in vitro by adult DRG neurons (adult DRG neurons)
CC(=O)O[C@H]1C(=O)[C@@]2(C)[C@H]([C@H](OC(=O)c3ccccc3)[C@]3(O)C[C@H](OC(=O)[C@H](O)[C@@H](NC(=O)c4ccccc4)c4ccccc4)C(C)=C1C3(C)C)[C@]1(OC(C)=O)CO[C@@H]1C[C@@H]2O [Taxol]	rescued	
C[S+]([O-])c1ccc(-c2nc(-c3ccncc3)c(-c3ccc(F)cc3)[nH]2)cc1 (centres unmarked) [SB203580]		10%
